From paper PMC8415707 (Frontiers in Pharmacology, 2021)
No end group written: not given here.

Columns and labels:
[1] = system: Bacillus subtilis CMCC 63501; experiment: microbe, parasite or virus in culture; assay type: cell-based
Description: (§1) The antimicrobial activity of FM-CATH was measured using two-fold dilution method as reported previously by us ([Ye et al., 2020]). Microorganisms bought from Guangdong Institute of Microbiology were cultured in Muller-Hinton (MH) broth at 37°C to exponential phase and subsequently diluted with fresh MH broth to reach 10^6 CFU/ml of density. An equal volume of microbial inoculums in 96-well plates was incubated with different concentrations of FM-CATH at 37°C for 14 h. The absorbance at 600 nm was measured by a microplate spectrophotometer (Infinite M1000 Pro, Tecan Company, Switzerland) to calculate the minimal inhibitory concentration (MIC) values. […] Ampicillin and polymyxin B were used as positive controls.

[2] = system: Pseudomonas aeruginosa ATCC 27853; experiment: microbe, parasite or virus in culture; assay type: cell-based
Description: as §1

[3] = system: Candida albicans ATCC 10231; experiment: microbe, parasite or virus in culture; assay type: cell-based
Description: as §1

[4] = system: Propionibacterium acnes ATCC 6919; experiment: microbe, parasite or virus in culture; assay type: cell-based
Description: as §1

MDCK = experiment: Cytotoxicity by MTT; assay type: cell-based; details: 24 h, 2.5-40 μM tested, n = 3, read-out: IC50 (proliferation, MTT)
Description: (§2) Three tumor cell lines (A549, HepG2, and MDA-MB-231) and two normal mammalian cell lines (MH-S and MDCK) were seeded in 96-well plates at a density of 5,000 cells per well. […] The supernatant was removed and DMSO was added before the absorbance at 490 nm was measured.

MH-S = details: 24 h, 2.5-40 μM
Description: as §2

mouse erythrocytes = details: 40 μM, 2% mouse erythrocyte suspension in TBS, room temperature, 2 h, absorbance 540 nm
Description: Hemolytic assay was carried out with fresh blood from mouse heart as reported in our previous article with minor modification ([Chai et al., 2021]). […] 1% Triton X-100 and PBS were applied as the positive and negative control, respectively. The absorbance of the supernatant at 540 nm was measured with a microplate spectrophotometer. The hemolysis rate was calculated using the following formula: percentage hemolysis = (ODsample—ODPBS)/(ODTriton—ODPBS) × 100%.

A549 = experiment: Cytotoxicity by MTT; assay type: cell-based; details: A549, 24 h, 2.5-40 μM tested, n = 3; read-out: IC50 (proliferation, MTT)
Description: as §2

[5] = system: Escherichia coli ATCC 25922; assay type: cell-based; details: ATCC 25922, 14 h
Description: The antimicrobial activity of FM-CATH was measured using two-fold dilution method as reported previously by us ([Ye et al., 2020]). Microorganisms bought from Guangdong Institute of Microbiology were cultured in Muller-Hinton (MH) broth at 37°C to exponential phase and subsequently diluted with fresh MH broth to reach 10^6 CFU/ml of density. An equal volume of microbial inoculums in 96-well plates was incubated with different concentrations of FM-CATH at 37°C for 14 h. The absorbance at 600 nm was measured by a microplate spectrophotometer (Infinite M1000 Pro, Tecan Company, Switzerland) to calculate the minimal inhibitory concentration (MIC) values.

MDA-MB-231 = details: MDA-MB-231, 24 h, 2.5-40 μM
Description: as §2

HepG2 = experiment: Cytotoxicity by MTT; assay type: cell-based; details: HepG2, 24 h, 2.5-40 μM tested, n = 3; read-out: IC50 (proliferation, MTT)
Description: as §2

[6] = Isothermal titration calorimetry, binding to LPS; parameters: species or system Escherichia coli O55:B5; details: ITC, 1 mM peptide titrated into 50 μM LPS, 50 mM PBS pH 7.2, 25°C, single-site model
Description: ITC assay was carried out to investigate the thermodynamics of interactions between peptides and LPS or LTA using MicroCal PEAQ-ITC (Malvern; United Kingdom). 50 mM of PBS (pH 7.2) was used to prepare stock solutions of peptide, LPS, and LTA. […] In LTA binding experiment, 100 μM LTA in the syringe was titrated into 280 μL of 50 μM FM-CATH in the cell with the condition described above. Instrument was operated in high feedback mode. After the heats derived from dilution were subtracted, the equilibrium disassociation constant (K D) and the enthalpy change (ΔH) were analyzed by fitting to a single-site binding model using the MicroCal Origin software. The Gibb’s free energy change (ΔG) and entropy change (ΔS) were obtained from the basic thermodynamic equations, respectively.

[7] = system: Staphylococcus aureus ATCC 25923; experiment: Antimicrobial assay (MIC, two-fold dilution); assay type: cell-based; details: MH broth, 10^6 CFU/ml, 37°C, 14 h, absorbance 600 nm
Description: as §1

[8] = two-fold dilution, MH broth, 10^6 CFU/ml, 37°C, 14 h, absorbance 600 nm

With CC1(C)S[C@@H]2[C@H](NC(=O)[C@H](N)c3ccccc3)C(=O)N2[C@H]1C(=O)O [Ampicillin] the MIC ([1]; Bacillus subtilis, CMCC63501, 14 h) was > 100 µM, the MIC ([2]; Pseudomonas aeruginosa, ATCC27853, 14 h) was > 100 µM and the MIC ([3]; Candida albicans, ATCC10231, 14 h) was > 100 µM. For the same compound, the MIC ([4]; Cutibacterium acnes, ATCC6919, 14 h) was > 100 µM.
In the case of LKTKALNKLKQKLQAVGNLIGSVIKG [FM-CATH], the MIC ([1]; CMCC 63501, 14 h) is reported as 12.5 µM, the MIC ([2]; ATCC 27853, 14 h) is reported as 50 µM and the MIC ([3]; ATCC 10231, 14 h) is reported as 6.25 µM. For the same compound, the MIC ([4]; ATCC 6919, 14 h) was 6.25 µM, the IC50 (MDCK) was 337 µM and the “cytotoxicity (MTT)” value (MH-S) was “very low cytotoxicity”. For the same compound, the hemolytic activity (mouse erythrocytes) was “almost no hemolytic activity”, the IC50 (A549) was 11.7 µM and the MIC [5] was 6.25 µM. The “cytotoxicity (MTT)” value (MDA-MB-231) was “very low cytotoxicity” and the IC50 (HepG2) was 33.4 µM.
With Polymyxin B the MIC [1, 8] was 25 µM, the MIC [2, 8] was 50 µM and the MIC [3, 8] was 25 µM. For the same compound, the MIC [4, 8] was 6.25 µM, the Kd [6] was 0.414 µM and the “∆H” value [6] was 5.9 ± 0.156 kcal/mol. The MIC [7] was >100 µM.
